Results taken from US20190209539A1, “THIOHYDANTOIN ANDROGEN RECEPTOR ANTAGONISTS FOR THE TREATMENT OF CANCER” (Janssen Pharmaceutica NV, priority 2016, published 2019).
Substitutions are numbered along the chain they refer to.

Tests used:
[1] = biological target: T1, wild-type Androgen Receptor (AR-wt) (Homo sapiens, UniProt P10275); assay: LNCaP-AR-wt AG: ARE luciferase reporter assay, agonist mode; format: cell-based
T1 construct: expressed in transfected cells; host or cells: LNCaP AR (cs) cells with ARE firefly luciferase lentiviral construct
T1 sequence (P10275 1-920): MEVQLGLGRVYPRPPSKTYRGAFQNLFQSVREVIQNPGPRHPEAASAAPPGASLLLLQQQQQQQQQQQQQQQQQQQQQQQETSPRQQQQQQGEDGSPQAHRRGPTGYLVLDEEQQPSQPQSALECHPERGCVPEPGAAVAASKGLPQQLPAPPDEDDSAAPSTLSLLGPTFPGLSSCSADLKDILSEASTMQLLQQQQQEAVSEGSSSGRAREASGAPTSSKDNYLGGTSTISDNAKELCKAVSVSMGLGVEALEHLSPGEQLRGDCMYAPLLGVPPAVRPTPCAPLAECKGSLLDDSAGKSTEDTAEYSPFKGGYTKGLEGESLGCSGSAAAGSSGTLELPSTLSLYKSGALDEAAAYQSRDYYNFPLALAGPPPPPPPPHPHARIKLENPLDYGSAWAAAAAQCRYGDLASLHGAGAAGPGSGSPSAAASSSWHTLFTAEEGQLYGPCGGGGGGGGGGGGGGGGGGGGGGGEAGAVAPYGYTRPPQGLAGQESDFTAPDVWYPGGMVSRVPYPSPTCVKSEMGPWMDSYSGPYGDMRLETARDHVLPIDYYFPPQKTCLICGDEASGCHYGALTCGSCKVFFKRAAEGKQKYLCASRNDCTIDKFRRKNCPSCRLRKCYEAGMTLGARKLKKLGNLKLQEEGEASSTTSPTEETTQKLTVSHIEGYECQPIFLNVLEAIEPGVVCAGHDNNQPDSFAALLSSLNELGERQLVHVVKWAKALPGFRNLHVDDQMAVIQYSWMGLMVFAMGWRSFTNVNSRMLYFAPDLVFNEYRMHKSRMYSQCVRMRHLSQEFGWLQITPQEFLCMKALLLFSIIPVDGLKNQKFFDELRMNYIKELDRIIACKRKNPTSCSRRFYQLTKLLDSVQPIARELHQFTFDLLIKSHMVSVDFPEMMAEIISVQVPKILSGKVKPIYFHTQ
Method: (§1) A stable pooled-population cell line was generated using puromycin (Life Technologies) selection at 1:10,000 v/v. The protocol below was used for both cell lines and for testing of the compounds of Formula (I) of the present invention.
(§2) LNCaP cells were grown to about 80% confluence, media removed and cells rinsed in Hank's balanced salt solution prior to separation from the plate with 0.05% Trypsin EDTA. Cells were lifted and trypsin negated in complete CSS (charcoal stripped serum) culture media. […] Agonist challenge was at 400 pM for WT assay and 600 pM for F876L assay. Plates containing cells and compounds herein were incubated for a further 20-24 hours at 37° C., 5% CO2 before addition of 40 μL/well of Steady-Glo Luciferase Assay System Reagent (Promega# E2520). After 1 h, plates were read for luminescence on a BMG Pherastar.
(§3) EC/IC50 calculations were achieved utilizing calculated RLU data and data fitting macros. Data were fit using least-squares methods to the following formula: […]
(§4) As used herein: pIC50 is defined as—Log10(IC50 expressed in [Molar]). pEC50 is defined as—Log10(EC50 expressed in [Molar]). […] LNCaP-AR-wt ANT refers to the reporter assay using LNCaP cells stably transfected with the Androgen Response Element Firefly Luciferase lentiviral construct and wild-type Androgen Receptor (AR-wt) in Antagonist mode. LNCaP-AR-wt AG refers to the reporter assay using LNCaP cells stably transfected with the Androgen Response Element Firefly Luciferase lentiviral construct and wild-type Androgen Receptor (AR-wt) in Agonist mode. LNCaP-AR-F876L ANT refers to the reporter assay using LNCaP cells stably transfected with the Androgen Response Element Firefly Luciferase lentiviral construct and F876L mutant Androgen Receptor (AR-F876L) in Antagonist mode. LNCaP-AR-F876L AG refers to the reporter assay using LNCaP cells stably transfected with the Androgen Response Element Firefly Luciferase lentiviral construct and F876L mutant Androgen Receptor (AR-F876L) in Agonist mode.

[2] = test system: androgen dependent signaling (androgen sensitive organs, ASO); assay: Hershberger Assay; format: in vivo, Sprague-Dawley rats; settings: p≤0.05, in all 5 organs
Method: The effect of AR antagonists on androgen dependent signaling in vivo was assessed using the Hershberger assay. In this assay, peripubertal castrated male Sprague-Dawley rats were administered AR antagonists described herein in the presence of testosterone (0.4 mg/kg testosterone propionate) and the weights of androgen dependent organs measured. Dosing was continued for 10 days and measurements taken 24 h after the last dose. The extent of antagonism of AR and consequent inhibition of organ growth was evaluated by comparison to the castration control. Compounds of Formula (I) were dosed orally QD and an endpoint assessment made by change in weight of 5 androgen sensitive organs (ASO): Paired Cowper's Glands (CG), Seminal Vesicles with Fluids and Coagulating Glands (SVCG), Glans Penis (GP), Ventral Prostate (VP) and Levator Ani-Bulbocavernosus Complex (LABC)). According to assay guidelines, statistically significant suppression of ASO is required in 2 of 5 organs for a compound to be classified as an anti-androgen (analysis was performed by t-test/Mann-Whitney).
Compounds defined herein were administered at the indicated dose (mg/kg) and flutamide (FT), positive control, at 3 mg/kg. […]

[3] = biological target: T2, F876L mutant Androgen Receptor (AR-F876L) (Homo sapiens, UniProt P10275, F877L); assay: LNCaP-AR-F876L AG: ARE luciferase reporter assay, agonist mode; format: cell-based
T2 construct: expressed in transfected cells; host or cells: LNCaP F876L cells with ARE firefly luciferase lentiviral construct
T2 sequence (P10275 1-920 F877L): T1 sequence (P10275 1-920) with F877L
Method: as §1, §2, §3, §4

[4] = biological target: T2, F876L mutant Androgen Receptor (AR-F876L); assay: LNCaP-AR-F876L ANT: ARE luciferase reporter assay, antagonist mode; format: cell-based
Method: as §1, §2, §3
(§5) As used herein: pIC50 is defined as—Log10(IC50 expressed in [Molar]). pEC50 is defined as—Log10(EC50 expressed in [Molar]). […] LNCaP-AR-wt ANT refers to the reporter assay using LNCaP cells stably transfected with the Androgen Response Element Firefly Luciferase lentiviral construct and wild-type Androgen Receptor (AR-wt) in Antagonist mode. […]

[5] = biological target: T1, wild-type Androgen Receptor (AR-wt); assay: LNCaP-AR-wt ANT: ARE luciferase reporter assay, antagonist mode; format: cell-based
Method: as §1, §2, §3, §5

T877A AR mutant = biological target: T3, T877A AR mutant (Homo sapiens, UniProt P10275, T878A); settings: cited from earlier work
T3 sequence (P10275 1-920 T878A): T1 sequence (P10275 1-920) with T878A

[6] = maximum % stimulation (agonist response), % of 1 μM R-1881 max

In the case of `CN1CCN(CCCc2ccc(N3C(=S)N(c4cnc(C#N)c(C(F)(F)F)c4)C(=O)C34CCC4)cc2)CC1` [Cpd 43, 5-[8-[4-[3-(4-methylpiperazin-1-yl)propyl]phenyl]-5-oxo-7-thioxo-6,8-diazaspiro[3.4]octan-6-yl]-3-(trifluoromethyl)pyridine-2-carbonitrile], the “LNCaP-AR-wt AG MAX % Stim” value [1, 6] is reported as 0.7%, the “reduction in ASO versus TP control” value [2] is reported as “significant reduction” and the “LNCaP-AR-F876L AG MAX % Stim” value [3, 6] is reported as 0.4%.
For `CNC(=O)c1ccc(N2C(=S)N(c3cnc(C#N)c(C)c3)C(=O)C23CCCC3)cc1F` [Cpd 65, 4-[7-(6-cyano-5-methyl-3-pyridyl)-6-oxo-8-thioxo-7,9-diazaspiro[4.4]nonan-9-yl]-2-fluoro-N-methyl-benzamide], the EC50 ([1]; agonist mode, read-out: LNCaP-AR-wt AG pEC50 (converted)) was > 15100 nM, the Emax ([1]; maximum % stimulation (agonist response), % of 1 μM R-1881 max, read-out: LNCaP-AR-wt AG MAX % Stim) was 1.2% and the IC50 ([4]; antagonist mode, 600 pM R-1881 challenge, read-out: LNCaP-AR-F876L ANT pIC50 (converted)) was 389 nM. It also gave an Emax ([4]; maximum % inhibition of R1881 control response over tested concentration range, read-out: LNCaP-AR-F876L ANT MAX % Inh) of 98.9%, an IC50 ([5]; antagonist mode, 400 pM R-1881 challenge, read-out: LNCaP-AR-wt ANT pIC50 (converted)) of 417 nM and an Emax ([5]; maximum % inhibition of R1881 control response over tested concentration range, read-out: LNCaP-AR-wt ANT MAX % Inh) of 97.8%. The EC50 ([3]; agonist mode, read-out: LNCaP-AR-F876L AG pEC50 (converted)) was > 15100 nM and the Emax ([3]; maximum % stimulation (agonist response), % of 1 μM R-1881 max, read-out: LNCaP-AR-F876L AG MAX % Stim) was 0.8%.
In the case of `N#Cc1ncc(N2C(=O)C3(CCC3)N(c3ccc(Oc4ccccn4)cc3)C2=S)cc1C(F)(F)F` [Cpd 103, 5-[5-oxo-8-[4-(2-pyridyloxy)phenyl]-7-thioxo-6,8-diazaspiro[3.4]octan-6-yl]-3-(trifluoromethyl)pyridine-2-carbonitrile], the “LNCaP-AR-wt AG MAX % Stim” value [1, 6] is reported as 4.0% and the “LNCaP-AR-F876L AG MAX % Stim” value [3, 6] is reported as 2.0%.
In the case of `C#CCNC(=O)c1ccc(N2C(=S)N(c3cnc(C#N)c(C(F)(F)F)c3)C(=O)C23CCC3)cc1F` [Cpd 111, 4-[6-[6-cyano-5-(trifluoromethyl)-3-pyridyl]-5-oxo-7-thioxo-6,8-diazaspiro[3.4]octan-8-yl]-2-fluoro-N-prop-2-ynyl-benzamide], the “LNCaP-AR-wt AG MAX % Stim” value [1, 6] is reported as 0.5% and the “LNCaP-AR-F876L AG MAX % Stim” value [3, 6] is reported as 2.7%.
For `Cc1cncc(-c2ccc(N3C(=S)N(c4cnc(C#N)c(C)c4)C(=O)C34CCC4)cc2)c1` [Cpd 114, 3-methyl-5-[8-[4-(5-methyl-3-pyridyl)phenyl]-5-oxo-7-thioxo-6,8-diazaspiro[3.4]octan-6-yl]pyridine-2-carbonitrile], the “LNCaP-AR-wt AG MAX % Stim” value [1, 6] was 0.7% and the “LNCaP-AR-F876L AG MAX % Stim” value [3, 6] was 3.3%.
In the case of `CC(C)(O)C(=O)Nc1ccc([N+](=O)[O-])c(C(F)(F)F)c1` [hydroxyflutamide], the “activity in T877A AR mutant” value (T877A AR mutant) is listed as “act as AR agonists”.
